The text below walks through data of PubChem BioAssay AID1996.

Structures are written as SMILES. Converted amounts (≈) assume the structure as drawn.

For the data set the following is noted: buffer; pH 7.4; 200.0 µM.
For orientation: solubility (kinetic) means solubility judged after dilution from a stock solution rather than from solid. Compound `COc1ccccc1-n1c(-c2ccc(F)cc2)coc1=O` gave a solubility (kinetic) of 2.9 µg/mL (≈ 10.2 µM).
In turn, `CCNC(=O)c1ccccc1-c1nc(-c2ccccc2OC)no1` displayed a solubility (kinetic) of 42.3 µg/mL (≈ 131 µM).
To `CC(NC(=O)c1ccccc1)C(=O)N/N=C/c1ccccc1` (configuration not stated) belongs above 44.3 µg/mL; to `Cc1nc(CSc2nnc(N)s2)cs1`, above 36.7 µg/mL.
In turn, `Cn1c(-c2ccccc2[N+](=O)[O-])[n+](C)c2ccccc21.[Cl-]` gave a kinetic solubility of 42.9 µg/mL.
Then `COC(=O)[C@H](CCSC)NC(=O)c1cccnc1SC`, with 38.8 µg/mL (≈ 123 µM).
Regarding `Cc1cc(C)cc(NC(=O)N2C3CCCC2CC(NC(=O)C2CC2)C3)c1` (configuration not stated), the solubility (kinetic) was found to be 1.6 µg/mL (≈ 4.5 µM).
To `CC(C)NC(=O)[C@H]1N2C(=O)c3ccccc3C2SC1(C)C` (some centres not stated) belongs above 45.7 µg/mL; to `COc1ccc(S(=O)(=O)N2CCCN(C)CC2)cc1.Cl`, above 48.1 µg/mL; to `O=C(Cc1c(F)cccc1Cl)Nc1cc(S(=O)(=O)N2CCOCC2)ccc1N1CCCC1`, 2 µg/mL (≈ 4.15 µM).
Then `Cc1ccccc1NCCC(=O)Nc1ccc(Cl)cc1`, with above 43.3 µg/mL.
To `COC(=O)c1ccc(COC(=O)CSCC(=O)Nc2ccc(C)cc2C)cc1` belongs 16 µg/mL (≈ 39.9 µM).
In turn, `CCc1ccc(NC(=O)NCc2ccc3c(c2)OCO3)cc1` came in with a solubility (kinetic) of 0.6 µg/mL (≈ 2.01 µM).
To `CCOc1ccc(C(=O)NCC(=O)N2CCCC2)cc1` belongs above 41.5 µg/mL; to `COc1cccc(-n2cc(-c3ccc(F)cc3)[nH]c2=S)c1`, 2.4 µg/mL (≈ 7.99 µM); to `CC(C(=O)OCC(=O)Nc1ccc(S(N)(=O)=O)cc1)N1C(=O)c2ccccc2C1=O` (configuration not stated), above 64.7 µg/mL.
To `CCOc1ccccc1NC(=S)NCCc1ccc(F)cc1` belongs 25.4 µg/mL (≈ 79.8 µM); to `CCCC(C)NC(=O)CSc1nc2ccc(C)cc2[nH]1` (configuration not stated), above 43.7 µg/mL; to `C[C@H](NS(=O)(=O)c1ccc(F)cc1)C(=O)OCC(=O)c1c(N)n(C)c(=O)n(C)c1=O`, above 66.4 µg/mL.
Regarding `O=C(NNC(=O)c1ccccc1C(=O)O)c1cc2ccccc2o1`, the kinetic solubility is above 48.6 µg/mL.
Then `O=C(NC(=S)N1CCCC1)c1ccc(Cl)cc1Cl`, with 32.5 µg/mL (≈ 107 µM).
Then `C=CCCC(=O)N1CCCC(C(=O)c2cccc(OC)c2)C1` (configuration not stated), with 40.7 µg/mL (≈ 135 µM); and `COc1cccc(C(=O)c2c[nH]c(C(=O)NCCCN(C)C)c2)c1`, with above 49.4 µg/mL.
To `Cc1ccc(C(=O)Nc2ccccc2C(=O)NCC2CCCO2)cc1` (configuration not stated) belongs above 50.8 µg/mL; to `C#CC(CC)(CC)NC(=O)c1ccc(Br)s1`, 18.6 µg/mL (≈ 62 µM); to `CN=C(Nc1cccnc1)c1cccc(C(F)(F)F)c1`, above 41.9 µg/mL.
For the compound `C=CCNC(=S)N1CCC(C(=O)c2ccc(Cl)cc2)CC1`, the solubility (kinetic) amounted to 43.5 µg/mL (≈ 135 µM).
Then `COc1ccc(C(CNC(=O)CN(C)S(=O)(=O)c2ccc(C)cc2)N2CCCC2)cc1` (configuration not stated), with above 66.8 µg/mL; and `COc1ccc(Cn2c(=S)[nH]c3ccccc3c2=O)cc1`, with below 0.3 µg/mL.
Then `Cc1ccc(S(=O)(=O)N2CCN(c3ccccc3)CC2)s1`, with 2.3 µg/mL (≈ 7.13 µM); and `Cc1cccc(C(C)C)c1NC(=O)c1c(-c2ccccc2)noc1C`, with 0.6 µg/mL (≈ 1.79 µM).
Compound `Cc1cc(C(=O)Nc2ccc(Br)cc2)c2ccccc2n1` had a solubility (kinetic) of 0.5 µg/mL (≈ 1.47 µM).
Take `CCc1ccc(CCOc2ccc(CC3SC(=O)NC3=O)cc2)nc1.Cl` (configuration not stated): the solubility (kinetic) was 1.8 µg/mL.
To `O=c1cnnc(Nc2ccccc2)[nH]1` belongs above 28.2 µg/mL; to `CCOc1ncccc1C(=O)OCC(=O)Nc1cc(C(C)(C)C)ccc1OC`, 1.5 µg/mL (≈ 3.88 µM); to `CCc1noc(C)c1C(=O)OCC(=O)Nc1ccc(F)cc1Cl`, 10.8 µg/mL (≈ 31.7 µM).
`Nc1nc(SCC(=O)Nc2cccc([N+](=O)[O-])c2)n[nH]1` displayed a solubility (kinetic) above 44.1 µg/mL.
Then `COc1ccc(S(=O)(=O)N2CCN(C)CC2)cc1`, with above 40.6 µg/mL; and `Cc1ccc2nc(SCC(=O)Nc3cc(C)on3)c(C)cc2c1`, with below 0.2 µg/mL; and `O=S(=O)(c1ccc(Cl)cc1)N1CCc2ccccc21`, with 6.1 µg/mL (≈ 20.8 µM).
Then `CCOc1ccccc1N1CCN(C(=O)NCc2ccc(C)cc2)CC1`, with above 53 µg/mL; and `C[C@H](NC(=O)Nc1cccc(Br)c1)C(=O)O`, with above 43.1 µg/mL.
To `S=C(NCCc1ccccc1)Nc1ccc(N2CCCCC2)cc1` belongs 0.6 µg/mL (≈ 1.77 µM); to `Cc1cc(C)cc(NC(=S)NC(=O)Cc2ccccc2)c1`, 0.5 µg/mL (≈ 1.68 µM); to `O=C(CN1C(=O)NC2(CCCCCC2)C1=O)NCc1ccccc1`, above 49.4 µg/mL.
The compound `FC(F)(F)c1ccnc(N2CCN(Cc3cnc(-c4ccccc4)[nH]3)CC2)c1` displayed a kinetic solubility of 26.8 µg/mL (≈ 69.2 µM).
Then `CC(=O)OCC(=O)Nc1ccc(Br)c(C)c1`, with above 42.9 µg/mL; and `COc1ccc(CNCCC2(C(C)C)CCOC(C)(C)C2)cc1` (configuration not stated), with above 47.9 µg/mL; and `CCOc1cc(/C=C2/C(=O)ON=C2C)ccc1O`, with 27.2 µg/mL (≈ 110 µM).
To `Cc1ccc(NC(=O)c2cccnc2C(=O)O)nc1` belongs above 38.6 µg/mL; to `O=CC(Br)P(=O)(N1CCOCC1)N1CCOCC1` (configuration not stated), above 51.2 µg/mL; to `Cc1ccccc1NC(=O)COC(=O)c1cc(C)n(C2CC2)c1C`, 5.6 µg/mL (≈ 17.2 µM).
